Target: T1, C5aR (Homo sapiens, UniProt P21730)
T1 construct: added to freshly-drawn human blood (EDTA as anticoagulant); endogenous in cells; host or cells: leukocytes in freshly drawn human whole blood (EDTA)
T1 sequence (P21730 1-350): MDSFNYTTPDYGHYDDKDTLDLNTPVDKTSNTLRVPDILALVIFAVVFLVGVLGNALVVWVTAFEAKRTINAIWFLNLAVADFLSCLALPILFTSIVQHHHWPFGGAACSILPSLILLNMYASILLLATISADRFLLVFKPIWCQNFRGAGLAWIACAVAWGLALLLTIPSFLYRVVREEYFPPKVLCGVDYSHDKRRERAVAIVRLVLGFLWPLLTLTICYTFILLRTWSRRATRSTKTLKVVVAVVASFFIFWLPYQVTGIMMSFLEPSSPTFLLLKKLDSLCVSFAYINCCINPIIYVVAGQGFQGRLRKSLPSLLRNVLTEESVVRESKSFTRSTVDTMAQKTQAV
Assay: C5a-induced chemotaxis (migration) assay in freshly-drawn human blood, ChemoTX plate, CyQUANT readout
Assay type: cell-based
Conditions: migration of cells from human whole blood (EDTA) toward recombinant hC5a, 37° C., 90-180 minutes; read-out: Mig IC50
Procedure: A serial dilution of C5aR compound or an equivalent volume of DMSO was added to freshly-drawn human blood (EDTA as anticoagulant). Separately, recombinant hC5a was diluted with chemotaxis buffer, after which 29 μl of diluted chemokine was placed in the lower wells of a ChemoTX plate (Neuro Probe, Gaithersburg, MD). A 3-μm (pore size) polycarbonate membrane (Neuro Probe, Gaithersburg, MD) was placed onto the plate, and 20 μL of the blood/compound mixture was transferred onto each well of the membrane. The plates were incubated at 37° C. for 90-180 minutes, after which the polycarbonate membranes were removed and 5 μl of the DNA-intercalating agent CyQUANT (Invitrogen, Carlsbad, CA) was added to the lower wells. The amount of fluorescence, corresponding to the number of migrated cells, was measured using a Spectrafluor Plus plate reader (TECAN, San Jose, CA).
Compounds in Table 1 were prepared by methods as described in the Examples, and evaluated according to the assay above. The IC50 of the compounds are presented in Table 1 as follows: +++, IC50≤100 nM .

IC50, ≤ 100 nM:
[2H]c1cc([C@H]2[C@@H](C(=O)Nc3ccc(C)c(C(F)(F)F)c3)CCCN2C(=O)c2c(F)cccc2C([2H])([2H])[2H])ccc1NC1CCCC1 [Compound 1.004]
[2H]c1cc(C)c(C(=O)N2CCC[C@H](C(=O)Nc3ccc(C)c(C(F)(F)F)c3)[C@@H]2c2ccc(NC3CC([2H])([2H])C([2H])([2H])C3)cc2)c(F)c1 [Compound 1.013]
[2H]C1([2H])CC(Nc2ccc([C@H]3[C@@H](C(=O)Nc4ccc(C)c(C(F)(F)F)c4)CCCN3C(=O)c3c(C)cccc3F)cc2)CC1([2H])[2H] [Compound 1.005]
[2H][C@]1(C(=O)Nc2ccc(C)c(C(F)(F)F)c2)CCCN(C(=O)c2c(C)cccc2F)[C@H]1c1ccc(NC2CCCC2)cc1 [Compound 1.015]
[2H]C([2H])([2H])c1cccc(F)c1C(=O)N1CCC[C@H](C(=O)Nc2ccc(CO)c(C(F)(F)F)c2)[C@@H]1c1ccc(NC2CCCC2)cc1 [Compound 1.011]
[2H]C1(Nc2ccc([C@H]3[C@@H](C(=O)Nc4ccc(C)c(C(F)(F)F)c4)CCCN3C(=O)c3c(C)cccc3F)cc2)CCCC1 [Compound 1.009]
[2H]c1cc([C@H]2[C@@H](C(=O)Nc3ccc(C([2H])([2H])O)c(C(F)(F)F)c3)CCCN2C(=O)c2c(C)cccc2F)ccc1NC1CCCC1 [Compound 1.002]
[2H]c1cc(C)c(C(=O)N2CCC[C@H](C(=O)Nc3ccc(C([2H])([2H])O)c(C(F)(F)F)c3)[C@@H]2c2ccc(NC3CCCC3)cc2)c(F)c1 [Compound 1.001]
[2H]C([2H])([2H])c1cccc(F)c1C(=O)N1CCC[C@H](C(=O)Nc2ccc(C)c(C(F)(F)F)c2)[C@@H]1c1ccc(NC2CCCC2)cc1 [Compound 1.017]
[2H]C([2H])(O)c1ccc(NC(=O)[C@H]2CCCN(C(=O)c3c(C)cccc3F)[C@H]2c2ccc(NC3CCCC3)cc2)cc1C(F)(F)F [Compound 1.006, (2R,3S)-2-(4-(cyclopentylamino)phenyl)-1-(2-fluoro-6-methylbenzoyl)-N-(4-(hydroxymethyl-d2)-3-(trifluoromethyl)phenyl)-piperidine-3-carboxamide]
[2H]C([2H])([2H])c1ccc(NC(=O)[C@H]2CCCN(C(=O)c3c(F)cccc3C([2H])([2H])[2H])[C@H]2c2ccc(NC3CCCC3)cc2)cc1C(F)(F)F [Compound 1.010, (2R,3S)-2-(4-(cyclopentylamino)phenyl)-1-(2-fluoro-6-(methyl-d3)benzoyl)-N-(4-(methyl-d3)-3-(trifluoromethyl)phenyl)piperidine-3-carboxamide]
[2H]c1cc(C)c(C(F)(F)F)cc1NC(=O)[C@H]1CCCN(C(=O)c2c(C)cccc2F)[C@H]1c1ccc(NC2CCCC2)cc1 [Compound 1.020]
[2H]c1cc(C)c(C(F)(F)F)c([2H])c1NC(=O)[C@H]1CCCN(C(=O)c2c(F)cccc2C([2H])([2H])[2H])[C@H]1c1ccc(NC2CCCC2)cc1 [Compound 1.012]
[2H]c1cc(C)c(C(F)(F)F)c([2H])c1NC(=O)[C@H]1CCCN(C(=O)c2c(C)cccc2F)[C@H]1c1ccc(NC2CCCC2)cc1 [Compound 1.018, (2R,3S)-2-(4-(cyclopentylamino)phenyl)-1-(2-fluoro-6-methylbenzoyl)-N-(4-methyl-3-(trifluoromethyl)phenyl-2,6-d3)piperidine-3-carboxamide]
[2H]c1cc(C)c(C(=O)N2CCC[C@H](C(=O)Nc3ccc(C)c(C(F)(F)F)c3)[C@@H]2c2ccc(NC3CCCC3)cc2)c(F)c1 [Compound 1.016]
[2H]C1([2H])C([2H])([2H])C([2H])([2H])C([2H])(Nc2ccc([C@H]3[C@@H](C(=O)Nc4ccc(C)c(C(F)(F)F)c4)CCCN3C(=O)c3c(C)cccc3F)cc2)C1([2H])[2H] [Compound 1.019, (2R,3S)-2-(4-((cyclopentyl-d9)amino)phenyl)-1-(2-fluoro-6-methylbenzoyl)-N-(4-methyl-3-(trifluoromethyl)phenyl)piperidine-3-carboxamide]
[2H]c1cc([C@H]2[C@@H](C(=O)Nc3c([2H])cc(C)c(C(F)(F)F)c3[2H])CCCN2C(=O)c2c(C)cccc2F)ccc1NC1CCCC1 [Compound 1.007]
[2H]c1cc([C@H]2[C@@H](C(=O)Nc3ccc(C)c(C(F)(F)F)c3)CCCN2C(=O)c2c(C)cccc2F)ccc1NC1CCCC1 [Compound 1.008]
[2H]C([2H])([2H])c1cccc(F)c1C(=O)N1CCC[C@H](C(=O)Nc2ccc(C)c(C(F)(F)F)c2)[C@@H]1c1ccc(NC2CC([2H])([2H])C([2H])([2H])C2)cc1 [Compound 1.014, (2R,3S)-2-(4-((cyclopentyl-3,3,4,4-d4)amino)phenyl)-1-(2-fluoro-6-(methyl-d3)benzoyl)-N-(4-methyl-3-(trifluoromethyl)phenyl)piperidine-3-carboxamide]
[2H]C([2H])([2H])c1ccc(NC(=O)[C@H]2CCCN(C(=O)c3c(C)cccc3F)[C@H]2c2ccc(NC3CCCC3)cc2)cc1C(F)(F)F [Compound 1.021, (2R,3S)-2-(4-(cyclopentylamino)phenyl)-1-(2-fluoro-6-methylbenzoyl)-N-(4-(methyl-d3)-3-(trifluoromethyl)phenyl)piperidine-3-carboxamide]
[2H]C([2H])([2H])c1cccc(F)c1C(=O)N1CCC[C@H](C(=O)Nc2ccc(C([2H])([2H])O)c(C(F)(F)F)c2)[C@@H]1c1ccc(NC2CCCC2)cc1 [Compound 1.003, (2R,3S)-2-(4-(cyclopentylamino)phenyl)-1-(2-fluoro-6-(methyl-d3)benzoyl)-N-(4-(hydroxymethyl-d2)-3-(trifluoromethyl)phenyl)piperidine-3-carboxamide]
